From ChEMBL document CHEMBL1140363, “Structure-driven HtL: design and synthesis of novel aminoindazole inhibitors of c-Jun N-terminal kinase activity” (Bioorg Med Chem Lett, 2005)

These compounds were tested against Mitogen-activated protein kinase 8 (Homo sapiens, UniProt P45983) (assay: Negative log of inhibitory concentration determined against c-Jun N-terminal kinase (Activity reported against the isolated JNK-1 enzyme)).
Mitogen-activated protein kinase 8, sequence (P45983 whole entry): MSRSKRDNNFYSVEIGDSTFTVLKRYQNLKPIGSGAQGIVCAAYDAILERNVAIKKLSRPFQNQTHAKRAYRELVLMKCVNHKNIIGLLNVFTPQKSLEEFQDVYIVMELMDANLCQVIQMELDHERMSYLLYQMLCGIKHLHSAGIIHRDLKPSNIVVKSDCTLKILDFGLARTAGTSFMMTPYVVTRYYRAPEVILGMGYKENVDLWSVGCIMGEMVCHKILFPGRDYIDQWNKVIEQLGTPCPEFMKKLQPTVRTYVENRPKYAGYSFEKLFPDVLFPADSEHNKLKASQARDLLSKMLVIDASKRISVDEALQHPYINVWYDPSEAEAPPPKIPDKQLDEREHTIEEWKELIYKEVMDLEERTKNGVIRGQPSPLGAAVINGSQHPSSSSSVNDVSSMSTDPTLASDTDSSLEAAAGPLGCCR

IC50 [nM]	SMILES
1580	O=[N+]([O-])c1ccc2[nH]nc(NCc3ccccc3Cl)c2c1Oc1ccccc1
1260	Clc1cccc(CNc2[nH]nc3cccc(Oc4ccccc4)c23)c1
5010	Nc1ccc2[nH]nc(NCc3ccccc3Cl)c2c1Oc1ccccc1
794	Clc1ccc(Cl)c(CNc2[nH]nc3cccc(Oc4ccccc4)c23)c1
794	COc1ccc(OC)c(CNc2[nH]nc3ccc([N+](=O)[O-])c(Oc4ccccc4)c23)c1

Second part, the compound before the results:

SMILES	IC50 [nM]
O=C(NCc1ccccc1Cl)c1cccnc1Oc1ccccc1F	1580
CC(=O)Nc1ccc(CNc2[nH]nc3cccc(Oc4ccc(S(C)(=O)=O)cc4)c23)cc1	794
COc1ccc(Oc2ncccc2C(=O)NCc2ccccc2Cl)cc1	3980
C[C@H](NC(=O)c1cccnc1Oc1ccccc1)c1ccccc1	6310
CC(=O)Nc1ccc(CNc2[nH]nc3ccnc(Oc4ccccc4)c23)cc1	158
COc1ccc(OC)c(CNc2[nH]nc3cccc(Oc4ccccc4)c23)c1	126
CC(=O)Nc1ccc(CNc2[nH]nc3cccc(Oc4ccccc4)c23)cc1	794
COc1ccc(OC)c(CNc2[nH]nc3cccc(Oc4ccc(S(C)(=O)=O)cc4)c23)c1	398
COc1ccc(OC)c(CNc2[nH]nc3cccc(Oc4ccc(F)cc4)c23)c1	200
CC(=O)Nc1ccc(CNc2[nH]nc3cccc(Oc4ccc(F)cc4)c23)cc1	501
COc1ccc(OC)c(CNc2[nH]nc3ccnc(Oc4ccccc4)c23)c1	15.8
COc1ccc(OC)c(CNC(=O)c2cccnc2Oc2ccccc2)c1	100
